Laboratory results as given in ChEMBL document CHEMBL3881526, “Selective androgen receptor modulators and method of use thereof” (2007).
The source made the active and inactive calls. The rule behind the calls is not given here.

What was measured:
[1] = Toxicity in ORX Sprague-Dawley rat assessed as induction of toxicity signs at 0.1 to 1 ug/day delivered at constant rate for 14 days via subcutaneous osmotic pumps by diagnostic hematology test; settings: in vivo, sc, 336 h
Rattus norvegicus [2] = assay: Effect on heart weight in ORX Sprague-Dawley rat at 0.1 to 1 ug/day delivered at constant rate for 14 days via subcutaneous osmotic pumps; type: ADME, tissue-based; settings: in vivo, sc, 336 h
Rattus norvegicus [3] = assay: Suppression of serum FSH in ORX Sprague-Dawley rat at =>0.3 mg/day delivered at constant rate for 14 days via subcutaneous osmotic pumps; type: functional
[4] = Toxicity in ORX Sprague-Dawley rat assessed as induction of toxicity signs at 0.1 to 1 ug/day delivered at constant rate for 14 days via subcutaneous osmotic pumps by visual examination test; settings: in vivo, sc, 336 h
Rattus norvegicus [5] = assay: Anabolic activity in ORX Sprague-Dawley rat assessed as restoration of levator ani muscle weight at 0.1 to 1 ug/day delivered at constant rate for 14 days via subcutaneous osmotic pumps; type: functional
Rattus norvegicus [6] = assay: Effect on lung weight in ORX Sprague-Dawley rat at 0.1 to 1 ug/day delivered at constant rate for 14 days via subcutaneous osmotic pumps; type: ADME, tissue-based; settings: sc, 336 h
Rattus norvegicus [7] = assay: Effect on spleen weight in ORX Sprague-Dawley rat at 0.1 to 1 ug/day delivered at constant rate for 14 days via subcutaneous osmotic pumps; type: ADME, tissue-based; settings: in vivo, sc, 336 h
Rattus norvegicus [8] = assay: Androgenic activity in ORX Sprague-Dawley rat assessed as restoration of seminal vesicles weight at 0.1 to 1 ug/day delivered at constant rate for 14 days via subcutaneous osmotic pumps; type: functional
Rattus norvegicus [9] = assay: Androgenic activity in ORX Sprague-Dawley rat assessed as restoration of prostate weight at 0.1 to 1 ug/day delivered at constant rate for 14 days via subcutaneous osmotic pumps; type: functional

C[C@](O)(COc1ccc(F)cc1)C(=O)Nc1ccc([N+](=O)[O-])c(C(F)(F)F)c1
Activity [1]: Non-Toxic | Activity (Rattus norvegicus [2]): Non-Toxic | Activity (Rattus norvegicus [3]): Active | Activity [4]: Non-Toxic | Activity (Rattus norvegicus [5]): Active | Activity (Rattus norvegicus [6]): Non-Toxic | Activity (Rattus norvegicus [7]): Non-Toxic | Activity (Rattus norvegicus [8]): <40% | Activity (Rattus norvegicus [9]): <40%
